# Results reported in PMC5571287 (Antimicrobial Agents and Chemotherapy, 2017).
# Where two headings read alike, the source gives them in different places.
# Tests used:
# RSV A2 [1] = assay: RSV A2-infected BALB/c mice, virus load in lung homogenate; assay type: in vivo
# [2] = tested on: Hepatitis C virus GT1b replicon; assay: microbe, parasite or virus in culture; assay type: cell-based
# RSVA 689 = assay: microbe, parasite or virus in culture; assay type: cell-based; settings: human respiratory syncytial virus, RSVA 689, clinical
# RSV A2 [3] = assay: Time-of-addition assay and MOI dependency, CPE (methylene blue) in HEp-2; assay type: cell-based; settings: human respiratory syncytial virus
# [4] = tested on: PC786 escape mutant (Y1631H) of RSV A2; assay type: cell-based, respiratory syncytial virus; settings: CPE
# RSVA 1211 [5] = settings: human respiratory syncytial virus
# RSVA 1211 [6] = assay: microbe, parasite or virus in culture; assay type: cell-based; settings: human respiratory syncytial virus, RSVA 1211, clinical
# RSV A2 [7] = assay: RSV A2 infection of ALI-cultured human airway epithelial cells, plaque assay of apical wash; assay type: cell-based, respiratory syncytial virus; settings: MOI 0.01
# Procedure: On the day of infection (day 0), the apical surface of each insert was washed once with 300 μl of sterile PBS and the inserts were then transferred to new 24-well plates containing 780 μl of fresh MucilAir culture medium (Epithelix Sàrl). […] The virus inoculum was removed with a pipette and inserts were washed twice with 300 μl of sterile PBS. A day 0 sample was harvested by adding 300 μl of sterile PBS to the apical surface of each well for 5 min. The 300-μl sample was then removed and transferred to 0.5-ml tubes containing 100 μl of 50% sucrose dissolved in PBS, and the tubes were stored at -80°C. This harvesting procedure was repeated daily until day 7. PC786 was dosed apically onto MucilAir inserts. […] The dosing regimen was performed daily on day 0 to day 6 following each sample collection. On day 5, the basal medium was removed from every well and replenished with fresh MucilAir culture medium as a necessary maintenance step for ALI culture cells. Virus titer in the apical wash samples was determined by plaque assay. […] Cells were washed twice with PBS before 150 μl of secondary antibody (goat anti-mouse HRP conjugate [Dako Ltd., Ely, UK; P044701-2]), diluted 1:400 in blocking buffer, was added to cells for 1 h at RT, with shaking. […] Each well received 150 μl of development substrate (sigmaFAST […]; Sigma-Aldrich) until plaques were visible. Plaques were counted by eye and confirmed using light microscopy.
# RSV B 9320 = assay: CPE assay in HEp-2 cells (resazurin); assay type: cell-based; settings: human respiratory syncytial virus
# [8] = biological target: RSV RdRp activity in crude RSV A L-P complex (Human respiratory syncytial virus A, UniProt P28887); assay: biochemical; settings: read-out: RdRp activity IC90
# Sequence of RSV RdRp activity in crude RSV A L-P complex (P28887 whole entry): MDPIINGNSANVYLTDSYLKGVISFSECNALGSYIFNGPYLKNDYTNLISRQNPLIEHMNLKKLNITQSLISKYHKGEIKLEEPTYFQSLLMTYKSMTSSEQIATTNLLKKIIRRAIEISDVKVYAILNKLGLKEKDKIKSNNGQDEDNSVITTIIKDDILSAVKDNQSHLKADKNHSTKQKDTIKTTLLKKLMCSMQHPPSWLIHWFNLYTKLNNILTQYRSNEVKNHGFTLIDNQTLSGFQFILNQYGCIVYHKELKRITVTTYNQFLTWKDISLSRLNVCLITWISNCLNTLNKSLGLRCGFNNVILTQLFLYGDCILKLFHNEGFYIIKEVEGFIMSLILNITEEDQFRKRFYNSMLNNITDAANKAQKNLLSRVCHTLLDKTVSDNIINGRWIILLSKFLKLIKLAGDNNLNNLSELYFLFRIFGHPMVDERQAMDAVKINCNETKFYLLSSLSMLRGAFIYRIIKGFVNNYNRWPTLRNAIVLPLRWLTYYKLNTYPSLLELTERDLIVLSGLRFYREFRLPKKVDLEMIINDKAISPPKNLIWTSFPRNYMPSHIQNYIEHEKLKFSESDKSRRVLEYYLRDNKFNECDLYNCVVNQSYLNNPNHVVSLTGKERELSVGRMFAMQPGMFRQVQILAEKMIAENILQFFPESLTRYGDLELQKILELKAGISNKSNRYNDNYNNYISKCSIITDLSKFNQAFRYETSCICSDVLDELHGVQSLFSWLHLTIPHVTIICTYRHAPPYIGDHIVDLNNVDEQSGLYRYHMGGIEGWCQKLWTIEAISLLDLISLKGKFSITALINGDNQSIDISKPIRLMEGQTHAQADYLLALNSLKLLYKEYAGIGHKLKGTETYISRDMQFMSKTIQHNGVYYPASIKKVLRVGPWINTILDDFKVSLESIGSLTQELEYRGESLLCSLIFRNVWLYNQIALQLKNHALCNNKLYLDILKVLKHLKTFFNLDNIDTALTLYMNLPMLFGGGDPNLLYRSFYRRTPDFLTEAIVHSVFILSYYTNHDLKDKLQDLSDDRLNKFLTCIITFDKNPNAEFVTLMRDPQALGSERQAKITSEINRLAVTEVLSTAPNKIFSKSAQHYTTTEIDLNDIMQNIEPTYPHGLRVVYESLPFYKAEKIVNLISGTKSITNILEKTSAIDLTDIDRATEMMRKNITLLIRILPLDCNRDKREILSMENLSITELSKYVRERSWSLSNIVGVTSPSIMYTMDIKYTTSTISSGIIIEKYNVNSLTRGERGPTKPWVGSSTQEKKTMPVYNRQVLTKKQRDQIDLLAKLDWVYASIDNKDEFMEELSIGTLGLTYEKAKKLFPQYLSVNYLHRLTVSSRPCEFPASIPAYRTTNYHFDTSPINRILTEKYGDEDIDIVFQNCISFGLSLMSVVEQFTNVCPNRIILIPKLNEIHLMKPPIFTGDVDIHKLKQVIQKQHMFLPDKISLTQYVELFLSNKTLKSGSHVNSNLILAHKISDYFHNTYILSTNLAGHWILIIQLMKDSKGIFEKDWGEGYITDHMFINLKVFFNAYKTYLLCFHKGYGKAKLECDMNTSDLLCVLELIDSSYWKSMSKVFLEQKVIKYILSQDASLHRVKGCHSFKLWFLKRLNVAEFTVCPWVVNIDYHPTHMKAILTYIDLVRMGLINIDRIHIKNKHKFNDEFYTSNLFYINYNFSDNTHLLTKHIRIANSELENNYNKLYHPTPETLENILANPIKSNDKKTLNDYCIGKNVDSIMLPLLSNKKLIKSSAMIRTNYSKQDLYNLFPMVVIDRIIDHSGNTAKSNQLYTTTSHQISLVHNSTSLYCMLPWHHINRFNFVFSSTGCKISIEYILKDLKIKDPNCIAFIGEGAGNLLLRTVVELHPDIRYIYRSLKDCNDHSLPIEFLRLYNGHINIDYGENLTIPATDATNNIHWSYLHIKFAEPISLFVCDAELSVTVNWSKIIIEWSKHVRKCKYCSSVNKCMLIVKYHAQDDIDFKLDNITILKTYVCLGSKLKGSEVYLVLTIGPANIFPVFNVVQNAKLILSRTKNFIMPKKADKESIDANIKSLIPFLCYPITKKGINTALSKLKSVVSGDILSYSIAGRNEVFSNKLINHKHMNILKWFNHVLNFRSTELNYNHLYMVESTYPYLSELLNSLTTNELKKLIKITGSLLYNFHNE
# Sequence of RSV RdRp activity in crude RSV A L-P complex (P03421 whole entry, further chain): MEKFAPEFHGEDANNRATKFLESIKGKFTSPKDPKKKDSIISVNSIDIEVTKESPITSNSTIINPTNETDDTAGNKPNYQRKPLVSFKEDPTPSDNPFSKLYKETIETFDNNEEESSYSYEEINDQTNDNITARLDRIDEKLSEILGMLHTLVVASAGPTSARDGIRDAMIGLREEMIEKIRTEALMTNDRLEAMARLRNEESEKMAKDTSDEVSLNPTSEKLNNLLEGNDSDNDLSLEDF
# [9] = tested on: Wild type RSVA2 (vehicle control virus); assay: CPE assay, vehicle control (wild type) RSV A2 virus; settings: human respiratory syncytial virus
# [10] = tested on: Herpes simplex virus 1 (HF strain); assay: microbe, parasite or virus in culture; assay type: cell-based; settings: Herpes simplex virus 1, Vero
# [11] = intranasal 0.2 mg/ml (0.19 mg/kg)
smiles,measurement,setting,value
"Cc1cnc(N2CC3(CCOCC3)C2)c(C(=O)Nc2ccc(C(=O)N3CCc4cc(C(=O)Nc5c(C)cccc5F)sc4-c4ccccc43)cc2)c1 [PC786, N-(2-fluoro-6-methylphenyl)-6-(4-(5-methyl-2-(7-oxa-2-azaspiro[3.5]nonan-2-yl)nicotinamido)benzoyl)-5,6-dihydro-4H-benzo[b]thieno[2,3-d]azepine-2-carboxamide]","Virus titer of lung homogenate, interquartile range",RSV A2 [1]; [11],1.9–3.0 log PFU/ml
same,"Virus titer of lung homogenate, median",RSV A2 [1]; [11],2.5 log PFU/ml
same,"Virus titer of lung homogenate, geometric mean ± SD",RSV A2 [1]; intranasal 0.2 mg/ml (0.19 mg/kg) once daily days −1 to 3,2.4 ± 0.59 log PFU/ml
same,"Virus titer of lung homogenate, median",RSV A2 [1]; intranasal 2.0 mg/ml (1.9 mg/kg),<0.33 (LOQ) log PFU/ml
same,"Virus titer of lung homogenate, median",RSV A2 [1]; intratracheal 2.0 mg/ml (3.2 mg/kg),<0.33 (LOQ) log PFU/ml
same,inhibition at 14 µM,"[2]; GT1B, Huh-7, HCV replicon assay, at 14 μM, read-out: maximum inhibition achieved",74%
same,IC50,"[2]; Huh-7, GT1b replicon",320 nM
same,IC90 or IC95,"[2]; Huh-7, GT1b replicon",>14000 nM
same,IC50,RSVA 689; read-out: CPE IC50,0.5 nM
same,IC90,RSVA 689; read-out: CPE IC90,0.6 nM
same,IC50,"RSV A2 [3]; HEp-2, 24 h, MOI 0.02, n = 3, read-out: IC50 at treatment time 24 h postinoculation",0.85 nM
same,IC50,"RSV A2 [3]; HEp-2, 24 h, MOI 0.1, n = 3, read-out: IC50 at treatment time 24 h postinoculation",1.09 nM
same,IC50,"RSV A2 [3]; HEp-2, 24 h, MOI 1.0, n = 3, read-out: IC50 at treatment time 24 h postinoculation",0.5 nM
same,IC50,"RSV A2 [3]; HEp-2, 48 h, read-out: IC50 at treatment time 48 h postinoculation, MOI 0.02, n = 3",0.94 nM
same,IC50,"RSV A2 [3]; HEp-2, 48 h, read-out: IC50 at treatment time 48 h postinoculation, MOI 0.1, n = 3",2.36 nM
same,IC50,"RSV A2 [3]; HEp-2, 48 h, read-out: IC50 at treatment time 48 h postinoculation, MOI 1.0, n = 3",0.46 nM
same,IC50,"RSV A2 [3]; HEp-2, 72 h, MOI 0.02, n = 3, read-out: IC50 at treatment time 72 h postinoculation",> 93.4 nM
same,IC50,"RSV A2 [3]; HEp-2, 72 h, MOI 0.1, n = 3, read-out: IC50 at treatment time 72 h postinoculation",> 140 nM
same,IC50,"RSV A2 [3]; HEp-2, 72 h, MOI 1.0, n = 3, read-out: IC50 at treatment time 72 h postinoculation",> 140 nM
same,IC50,"RSV A2 [3]; HEp-2, MOI 0.02, n = 3, CPE at 144 h, read-out: IC50 at treatment time 0 h postinoculation",0.6 nM
same,IC50,"RSV A2 [3]; HEp-2, MOI 0.1, n = 3, CPE at 144 h, read-out: IC50 at treatment time 0 h postinoculation",0.99 nM
same,IC50,"RSV A2 [3]; HEp-2, MOI 1.0, n = 3, CPE at 144 h, read-out: IC50 at treatment time 0 h postinoculation",0.44 nM
same,IC50,"[4]; read-out: PC786 escape mutant IC50, N=3, after 6th passage",17.9 nM
same,IC90,"[4]; read-out: PC786 escape mutant IC90, N=3",1120 nM
same,IC50,"RSVA 1211 [5]; HEp-2, read-out: RSV titre in supernatant IC50 (0.3 Log PFUe reduction) (converted)",< 0.09 nM
same,IC90,"RSVA 1211 [5]; HEp-2, read-out: RSV titre in supernatant IC90 (1 Log PFUe reduction) (converted)",1.05 nM
same,IC50,RSVA 1211 [6]; read-out: CPE IC50,< 0.09 nM
same,IC90,RSVA 1211 [6]; read-out: CPE IC90,1.96 nM
same,viral replication in apical wash (plaque assay),RSV A2 [7]; 5.6 nM apical once daily day 0 to day 6,did not peak until day 5
same,viral replication in apical wash (plaque assay),RSV A2 [7]; 28 nM apical once daily day 0 to day 6,viral replication was not detected until day 4
same,viral quantity in apical wash (plaque assay),RSV A2 [7]; 140 nM apical once daily day 0 to day 6,below detectable limits
same,IC50,RSV B 9320,29.1 nM
same,IC90,RSV B 9320,64.3 nM
same,IC90,[8],21.8 nM
same,IC50,[9]; read-out: Wild type RSVA2 IC50,0.027 nM
same,IC90,[9]; read-out: Wild type RSVA2 IC90,0.065 nM
same,IC90 or IC95,[10],>14000 nM
same,IC50,[10]; Human alphaherpesvirus 1,> 14000 nM
